Test results from ChEMBL document CHEMBL3885861, “Open TG-GATES”.

Species: Rattus norvegicus
Test: Open TG-GATES - Regimen: Single
Format: toxicity, organism-based, Sprague-Dawley
Set-up: regimen Single, gender Male, age 6 weeks
Conditions: in vivo, po, route gavage; for APTT / Bas / Eos / Fbg / Hb / Ht / Lym / MCV / Mono / PT / Plat / RBC / Ret / WBC / MCHC / Neu: tissue Blood; for ALP / ALT / AST / BUN / CRE / Ca / Cl / DBIL / GLC / IP / K / LDH / Na / PL / RALB / TBIL / TC / TG / TP / gamma-GTP: tissue Plasma
[1] = 0 mg/kg, 3 h, dose level Control
[2] = 0 mg/kg, 6 h, dose level Control
[3] = 0 mg/kg, 9 h, dose level Control
[4] = 0 mg/kg, 24 h, dose level Control
[5] = 100 mg/kg, 24 h, dose level Low

## O=C(O)c1cccnc1 [NIACIN]
[1]
  APTT: 24 s
  Bas: 0%
  Eos: 0.8%
  Fbg: 311.4 mg/dL
  Hb: 13.5 g/dL
  Ht: 40.1%
  Lym: 81.2%
  MCV: 63.7 fL
  Mono: 2.2%
  PT: 16.4 s
  Plat: 118.4 x10_4/uL
  RBC: 630 x10_4/ul
  Ret: 7.9%
  WBC: 80.3 x10_2/uL
  ALP: 1666.4 IU/L
  ALT: 44.8 IU/L
  AST: 68.6 IU/L
  BUN: 12.8 mg/dL
  CRE: 0.1 mg/dL
  Ca: 11 mg/dL
  Cl: 102.6 meq/L
  DBIL: 0 mg/dL
  GLC: 182.4 mg/dL
  IP: 9.1 mg/dL
  K: 4.2 meq/L
  LDH: 165 IU/L
  Na: 140.8 meq/L
  PL: 138.6 mg/dL
  RALB: 2.9 g/dL
  TBIL: 0.002 mg/dL
  TC: 80.8 mg/dL
  TG: 48.2 mg/dL
  TP: 5.7 g/dL
  gamma-GTP: 1.4 IU/L
[2]
  Bas: 0%
  Eos: 0.8%
  Fbg: 304 mg/dL
  Hb: 13.6 g/dL
  Ht: 40.5%
  Lym: 76.2%
  MCHC: 33.7%
  MCV: 62.9 fL
  Mono: 2.8%
  PT: 16.5 s
  Plat: 116.7 x10_4/uL
  RBC: 643.6 x10_4/ul
  Ret: 7.8%
  WBC: 105.2 x10_2/uL
  ALP: 1639.8 IU/L
  ALT: 37.8 IU/L
  AST: 72.2 IU/L
  BUN: 12.6 mg/dL
  CRE: 0.1 mg/dL
  Ca: 10.8 mg/dL
  Cl: 103.6 meq/L
  DBIL: 0 mg/dL
  GLC: 196.8 mg/dL
  IP: 9.5 mg/dL
  K: 4.3 meq/L
  LDH: 211.2 IU/L
  Na: 140.2 meq/L
  PL: 141 mg/dL
  RALB: 3 g/dL
  TBIL: 0.008 mg/dL
  TC: 79.2 mg/dL
  TG: 68.4 mg/dL
  TP: 5.5 g/dL
  gamma-GTP: 1 IU/L
[3]
  Bas: 0%
  Eos: 0.8%
  Fbg: 312.8 mg/dL
  Hb: 13 g/dL
  Ht: 39.1%
  Lym: 81.4%
  MCHC: 33.3%
  MCV: 62.3 fL
  Mono: 2.6%
  Neu: 13.8%
  Plat: 119.2 x10_4/uL
  RBC: 627.8 x10_4/ul
  Ret: 8%
  WBC: 95.1 x10_2/uL
  ALP: 1434.4 IU/L
  ALT: 38.4 IU/L
  AST: 70.6 IU/L
  BUN: 11.8 mg/dL
  CRE: 0.2 mg/dL
  Ca: 10.7 mg/dL
  Cl: 104 meq/L
  DBIL: 0.004 mg/dL
  GLC: 185.4 mg/dL
  IP: 9.4 mg/dL
  K: 4.2 meq/L
  LDH: 177.2 IU/L
  Na: 140.4 meq/L
  PL: 129 mg/dL
  RALB: 3 g/dL
  TBIL: 0.01 mg/dL
  TC: 74.4 mg/dL
  TG: 52.2 mg/dL
  TP: 5.5 g/dL
  gamma-GTP: 1.2 IU/L
[4]
  Bas: 0%
  Eos: 1%
  Fbg: 327.2 mg/dL
  Hb: 13.2 g/dL
  Ht: 39.3%
  Lym: 81.2%
  MCHC: 33.6%
  MCV: 63.3 fL
  Mono: 2.6%
  Neu: 14%
  PT: 16.1 s
  Plat: 120.2 x10_4/uL
  RBC: 621.2 x10_4/ul
  Ret: 7.5%
  WBC: 115.4 x10_2/uL
  ALP: 1844 IU/L
  ALT: 45 IU/L
  AST: 70 IU/L
  BUN: 15.6 mg/dL
  CRE: 0.2 mg/dL
  Ca: 10.6 mg/dL
  Cl: 104.2 meq/L
  DBIL: 0 mg/dL
  GLC: 197.2 mg/dL
  IP: 8.2 mg/dL
  K: 4.3 meq/L
  LDH: 200 IU/L
  Na: 140.4 meq/L
  PL: 147.6 mg/dL
  RALB: 3 g/dL
  TBIL: 0.002 mg/dL
  TC: 74.6 mg/dL
  TG: 104 mg/dL
  TP: 5.5 g/dL
  gamma-GTP: 1.4 IU/L
100 mg/kg, 3 h, dose level Low
  APTT: 22.6 s
  Bas: 0%
  Eos: 1%
  Fbg: 311 mg/dL
  Hb: 13.6 g/dL
  Ht: 40.7%
  Lym: 78.4%
  MCHC: 33.4%
  MCV: 65.5 fL
  Mono: 2.6%
  Neu: 16.6%
  PT: 16.2 s
  Plat: 118.2 x10_4/uL
  RBC: 621.4 x10_4/ul
  Ret: 8.2%
  WBC: 107.6 x10_2/uL
  ALP: 1552.4 IU/L
  ALT: 42.2 IU/L
  AST: 79.8 IU/L
  BUN: 13.6 mg/dL
  CRE: 0.2 mg/dL
  Ca: 10.8 mg/dL
  Cl: 105.4 meq/L
  DBIL: 0 mg/dL
  GLC: 183 mg/dL
  IP: 8.7 mg/dL
  K: 3.9 meq/L
  LDH: 196.8 IU/L
  Na: 141 meq/L
  PL: 118.4 mg/dL
  RALB: 3 g/dL
  TBIL: 0.008 mg/dL
  TC: 71 mg/dL
  TG: 27.8 mg/dL
  TP: 5.6 g/dL
  gamma-GTP: 1.4 IU/L
100 mg/kg, 6 h, dose level Low
  APTT: 22.5 s
  Bas: 0%
  Eos: 1%
  Fbg: 314 mg/dL
  Hb: 13.4 g/dL
  Ht: 40%
  Lym: 78.4%
  MCHC: 33.4%
  Mono: 3.4%
  Neu: 16.2%
  PT: 16.5 s
  Plat: 119.1 x10_4/uL
  RBC: 626.8 x10_4/ul
  Ret: 8%
  WBC: 87.9 x10_2/uL
  ALP: 1431.4 IU/L
  ALT: 38.8 IU/L
  AST: 69.8 IU/L
  BUN: 12.4 mg/dL
  CRE: 0.2 mg/dL
  Ca: 10.9 mg/dL
  Cl: 105 meq/L
  DBIL: 0.002 mg/dL
  GLC: 186 mg/dL
  IP: 8.9 mg/dL
  K: 3.8 meq/L
  LDH: 156.8 IU/L
  Na: 139.8 meq/L
  PL: 115 mg/dL
  RALB: 3 g/dL
  TBIL: 0.008 mg/dL
  TC: 64.4 mg/dL
  TG: 37.2 mg/dL
  TP: 5.5 g/dL
  gamma-GTP: 1.6 IU/L
100 mg/kg, 9 h, dose level Low
  Bas: 0%
  Eos: 0.8%
  Fbg: 305.4 mg/dL
  Hb: 13.5 g/dL
  Ht: 40.6%
  Lym: 81.6%
  MCHC: 33.3%
  MCV: 65.6 fL
  Mono: 2%
  Neu: 15.2%
  PT: 15.6 s
  Plat: 126.3 x10_4/uL
  RBC: 618.6 x10_4/ul
  Ret: 8.4%
  WBC: 88.6 x10_2/uL
  ALP: 1314.4 IU/L
  ALT: 38.8 IU/L
  AST: 70.4 IU/L
  CRE: 0.2 mg/dL
  Ca: 10.8 mg/dL
  Cl: 105.4 meq/L
  DBIL: 0.002 mg/dL
  GLC: 182.8 mg/dL
  IP: 8.9 mg/dL
  K: 4.1 meq/L
  LDH: 161.4 IU/L
  Na: 140.6 meq/L
  PL: 134 mg/dL
  RALB: 2.9 g/dL
  TBIL: 0.008 mg/dL
  TC: 73 mg/dL
  TG: 77 mg/dL
  TP: 5.5 g/dL
  gamma-GTP: 1.6 IU/L
[5]
  Bas: 0%
  Eos: 1%
  Fbg: 327.8 mg/dL
  Hb: 13.7 g/dL
  Ht: 40.6%
  Lym: 77.8%
  MCHC: 33.6%
  MCV: 64.8 fL
  Mono: 3%
  Neu: 17.2%
  PT: 16 s
  Plat: 109.3 x10_4/uL
  RBC: 627.6 x10_4/ul
  Ret: 7.6%
  WBC: 96.3 x10_2/uL
  ALP: 1716.6 IU/L
  ALT: 41.6 IU/L
  AST: 67.2 IU/L
  BUN: 16.2 mg/dL
  CRE: 0.2 mg/dL
  Ca: 10.5 mg/dL
  Cl: 104.6 meq/L
  DBIL: 0.002 mg/dL
  GLC: 192 mg/dL
  IP: 7.6 mg/dL
  K: 4.1 meq/L
  LDH: 155.4 IU/L
  Na: 139.6 meq/L
  PL: 154.2 mg/dL
  RALB: 3.1 g/dL
  TBIL: 0 mg/dL
  TC: 75.2 mg/dL
  TG: 158.4 mg/dL
  TP: 5.6 g/dL
